Entries after “also recorded” stand apart in the source; their conditions may differ. No end group written: not given here.
Tests used:
[1] = test system: Capan-1 flank tumor xenografts; experiment: MRMI of Capan-1 flank tumor xenografts (7T); assay type: in vivo, human cells in female nu/nu mice; details: 0.1 mmol/kg
Method: (§1) For flank xenograft models, 4 × 10^6 Capan-1 cells suspended in 100 μL of a 6 mg/mL Matrigel (Corning, Corning, NY) solution was injected subcutaneously into the flank of 8-week-old female nu/nu mice. The tumor bearing mice were imaged after tumor volumes exceeded 300 mm^3. For orthotopic intrapancreatic models, the pancreas of 4-week-old female nu/nu mice were surgically exposed via a ~10 mm incision in the left ventral abdomen and the application of gentle pressure to express the spleen and associated pancreatic tissue. 1 × 10^6 BxPC3-GFP-Luc or PANC-1-GFP-Luc cells suspended in 100 μL of a Matrigel solution (6 mg/mL) was injected into the pancreatic tissue using an insulin syringe with a 31G needle. Any leakage of cell suspension was lavaged with DPBS twice to prevent intraabdominal seeding PaCa cells. The peritoneal fascia was closed with absorbable stitches, and the dermis closed with stainless steel wound clips. Prior to imaging, growth of tumor was verified by bioluminescence imaging with intraperitoneal injection of d-luciferin on IVIS Spectrum system (Perkin Elmer, Waltham, MA).
Flank tumor-bearing mice were anesthetized and a tail vein catheter inserted. MR image acquisition was performed on a 7T Biospin (Bruker, Billerica, MA) preclinical small animal scanner with a volume radiofrequency coil. Axial images were obtained using a multi-spin multi-echo (MSME) MRI sequence (500 ms TR, 8.1 ms TE, 90° FA, 4.50 cm × 4.50 cm FOV, 1.50 mm slice thickness, 16 slices, 2 averages, 200 × 200 matrix, 0.0225 × 0.0225 cm/pixel resolution). Contrast agents were injected at a dose of 0.1 mmol/kg (100 μL) via the tail vein catheter, followed by a saline flush. Images of the tumors were acquired before contrast and at various time points after contrast administration. Gd(HP-DO3A) was used as a control.
(§2) Image files were exported and analyzed in Horus software. ROIs were drawn in the tumor, liver, kidney, and muscle. Muscle ROIs were taken from the muscle, with other structures (liver, kidney, tumor) identified after comparison with published images and comparison with anatomical landmarks or bioluminescent imaging. Pancreatic lesions were localized using the liver, kidney, and spleen as anatomical landmarks. […] Size of ROIs drawn for image analysis are summarized in Supplementary Table 1. The contrast-to-noise ratio of the tumor (CNR) was calculated using the following equation, where σnoise is the standard deviation of intensities from an ROI drawn outside of the mouse body:
(§3) CNR=Mean IntensityTumor-Mean IntensityMuscle/σnoise.
(§4) Image subtraction was performed on images adjusted to the same window and level in FIJI open-source software.
(§5) Image contrast was reported as fold enhancement of contrast to noise ratio of post-contrast images over pre-contrast images using Fold Enhancement = CNRpost/CNRpre. Statistical analysis of CNR was performed in Minitab Express (Minitab Inc., State College, PA). One-way ANOVA with Fisher Individual Tests for Differences of Means post-hoc testing was performed to determine statistical significance between >2 means (p < 0.05). Student's T test was used to determine statistical significance between 2 means (p < 0.05).

[2] = T1 and T2 relaxivity measurement at 3T; assay type: physicochemical; details: 0-2 mM MT218 in DPBS buffer
Method: The T1 and T2 values of MT218 and Gd(HP-DO3A) solutions were determined using a 3T MRS 3000 scanner (MR Solutions, Guildford, UK). Solutions of MT218 were prepared at concentrations of 0, 0.25, 0.5, 1, and 2 mM in DPBS buffer (Gibco, Gaithersburg, MD). T1 values were measured using an inversion recovery-fast low angle shot (IR-FLASH) sequence (τ = 10 ms, TE = 4 ms, FA = 8°, echoes/frames = 128, FOV = 40 mm × 40 mm, slice thickness = 2 mm, number of averages = 1, time delay = 4,000 ms, sample period = 200, matrix = 256 × 128). T2 values were obtained using a multi-echo multi-slice (MEMS) sequence (TE = 15 ms, […], echoes = 10, FOV: 40 mm × 40 mm, slice thickness = 1 mm, number of averages = 1, matrix = 256 × 192). The r1 and r2 relaxivities were calculated from the slopes of 1/T1 and 1/T2 vs. Gd concentration plots, respectively.

[3] = test system: PANC-1-GFP-Luc intrapancreatic tumor xenografts; experiment: MRMI of PANC-1-GFP-Luc intrapancreatic tumor xenografts (3T); assay type: in vivo, human cells in female nu/nu mice; details: 0.1 mmol/kg, 10 min post-injection, n = 6
Method: as §1
(§6) Mice bearing intrapancreatic tumors were anesthetized and a tail vein catheter was inserted. Image acquisition was performed on a MR Solutions 3T MRS 3000 scanner with a mouse radiofrequency coil. Axial images were obtained using a Fast Spin Echo (FSE) MRI sequence (305 ms TR, 11 ms TE, 90° FA, 4 cm × 4 cm FOV, 1 mm slice thickness, 10 slices, echo train length = 4, echo spacing = 11 ms, 4 averages, 256 × 256 matrix, 0.0156 × […] cm/pixel resolution) with respiratory gating. Images were acquired before contrast and at different time points after contrast injection at a dose of 0.1 mmol/kg (100 μL). For competitive binding experiments, a 5:1 molar ratio of free ZD2 peptide to MT218 was injected in mice bearing intrapancreatic BxPC3 tumor xenografts (n = 3) at a dose of 0.1 mmol MT218/kg (100 μL). Images obtained on the MR Solutions 3T scanner were normalized using the Surscalereader.exe (MR Solutions, Guildford, UK) program supplied.
as §2, §3, §4, §5

[4] = test system: BxPC3-GFP-Luc intrapancreatic tumor xenografts; experiment: MRMI of BxPC3-GFP-Luc intrapancreatic tumor xenografts (3T); assay type: in vivo, human cells in female nu/nu mice
Method: as §1, §6, §2, §3, §4, §5

EDB-FN [5] = details: cited from earlier work
Method: ZD2 targeted MRI contrast agents have been developed and tested for MRMI of EDB-FN in aggressive breast cancer and prostate cancer models ([15], [16], [20]). The targeted contrast agent ZD2-N3-Gd(HP-DO3A) (MT218) was developed by conjugating ZD2 peptide to a clinical macrocyclic contrast agent Gd(HP-DO3A) ([16], [20]). […] MT218 is a small molecular conjugate of ZD2 peptide to a macrocyclic clinical MRI contrast agent Gd(HP-DO3A). The binding affinity of MT218 to EDB-FN was measured to be 3.2 ± 0.2 μM, which is similar to that of a previously targeted contrast agent ZD2-Gd(HP-DO3A) ([23]). The T1 and T2 relaxivities of MT218 were measured to be 6.07 ± 1.13 s^−1 mM^−1 and 8.20 ± 0.18 s^−1 mM^−1, respectively, at 3 T. T1 and T2 relaxivities of Gd(HP-DO3A) were measured to be 3.20 ± 0.96 s^−1 mM^−1 and 5. ...

EDB-FN in PaCa = details: PET; cited from earlier work
From the text: Molecular imaging of EDB-FN in cancer has been previously investigated with antibodies labeled with radioisotopes for PET imaging. Anti-EDN-FN antibody BC-1 was labeled with ^125I and tested in mice bearing U87 brain tumor and SKMel28 melanoma xenografts ([29]). […] Nanobodies with a smaller size were recently developed for molecular imaging of E ...

EDB-FN [6] = experiment: Fluorescence staining of frozen mouse tumor xenograft and normal tissue sections; assay type: binding, human PaCa xenografts in nu/nu mice; details: for staining: ZD2-Cy5.5 500 nM, room temperature 2.5 h, BC-1 1:400, 4°C overnight
Method: For assessment of binding specificity of ZD2 peptide, flash frozen samples of tumor and normal tissues were collected from the euthanized tumor bearing mice and embedded in optimal cutting temperature media. The embedded samples were then immersed in liquid nitrogen for 5 min and transferred to −80°C for storage before cryosectioning. Tissue sections were blocked for 1 h in PBS containing 0.05% Tween-20 and 10% normal goat serum (Gibco, Gaithersburg, MD) and then stained with BC-1 primary monoclonal antibody (1:400) or ZD2-Cy5.5 (500 nM) at 4°C overnight or room temperature incubation for 2.5 h, respectively, and then washed with PBS-T buffer. Secondary Alexa Fluor 594 anti-rabbit was incubated with the BC-1 treated sections for 1 h at room temperature (1:1,000). For the blocking experiment, the tissue sections were first incubated with an excess of BC1 antibody at 4°C overnight, then washed three times with PBS-T. The sections were then incubated with ZD2-Cy5.5 at room temperature incubation for 2.5 h. The stained sections were washed with PBS-T buffer and images were acquired on an Olympus FV1000 (Waltham, MA) confocal microscope using pre-programmed emission and excitation filters for Cy5.5 (excitation: 635 nm; emission: 693 nm) and DAPI (excitation: 405 nm; emission: 461 nm), using a 10 × objective lens.

EDB-FN [7] = experiment: ZD2-Cy5.5 staining of human pancreatic tissue; assay type: binding; details: 500 nM, 1 h, 37°C, confocal
Method: Tissue sections from PaCa patients (Case Comprehensive Cancer Center, Cleveland, OH) were deparaffinized with xylene, ethanol, and washed with water. Blocking was performed with 10% goat serum (Invitrogen, Carlsbad, CA) in PBS with 0.1% Tween 20 (PBS-T) for 30 min and incubated with 500 nM ZD2-Cy5.5 in PBS-T for 1 h at 37°C. Following three washes with PBS-T, the sections were mounted using Fluoroshield mounting medium (Abcam, Cambridge, UK). Images were acquired on a FV1000 (Olympus, Waltham, MA) confocal microscope using pre-programmed emission and excitation filters for Cy5.5 (excitation: 635 nm; emission: 693 nm) and DAPI (excitation: 405 nm; emission: 461 nm), using a 10 × objective lens. All tissue samples were imaged at the same laser power and sensor gain. Images were generated from single-channel grayscale images using FIJI software.

[8] = target: extradomain B fibronectin in human PaCa tumor xenografts in mice (human (endogenous in BxPC3, Capan-1 and PANC-1 xenografts))
[9] = target: extradomain B fibronectin in human PaCa tumor xenografts in mice (human (endogenous in BxPC3, Capan-1 and PANC-1 xenografts)); remark: listed apart in the source
EDB fragment of FN = experiment: MST; NT-647-labelled EDB fragment at a fixed concentration, MT218 varied; 50 mM PBS w/0.05% Tween-20; 25°C; Monolith NT.115
[10] = 0.1 mmol/kg, 10 min post-injection, n = 3

Molecule: CC(O)CN1CCN(CC(=O)[O-])CCN(CC(=O)[O-])CCN(CC(=O)[O-])CC1.[Gd+3] (stereo not shown) [Gd(HP-DO3A), reference compound]
- contrast enhancement in tumor core ([1]; after injection): did not exhibit significant tumor core enhancement
- enhancement in tumor periphery, subtraction images ([1]; early time points (5–15 min post-contrast)): modest peripheral contrast enhancement
- intratumoral CNR increase (post/pre) ([1]; for the duration of the experiment, n = 5): 1.77 fold
- contrast enhancement throughout tumors, subtraction images ([1]; later time points (25–35 min) for MT218, all time points for Gd(HP-DO3A)): little to no intratumoral contrast
- intratumoral CNR increase compared with MT218 ([1]; p < 0.01): significantly less than MT218
- T1 relaxivity (r1) ([2]; IR-FLASH): 3.20 ± 0.96 s⁻¹ mM⁻¹
- T2 relaxivity (r2) ([2]; MEMS): 5.12 ± 0.18 s⁻¹ mM⁻¹
- intratumoral CNR increase (post/pre) [3]: 2.35 fold
- tumor contrast enhancement [3]: did not produce significant tumor contrast enhancement
- tumor signal enhancement, subtraction images [3]: little change
- tumor CNR increase compared with MT218 ([4]; 0.1 mmol/kg, 10 min, p < 0.01): significantly less than that with MT218
- tumor CNR increase (post/pre) ([4]; 0.1 mmol/kg, 10 min post-injection (maximum for MT218), n = 3): approximately 2.5 fold
- tumor contrast enhancement [4, 10]: modest contrast enhancement
- tumor enhancement, subtraction images [4, 10]: less intratumoral signal enhancement
- tumor contrast enhancement ([4]; 0.1 mmol/kg, 20 min post-injection, n = 3): reduced to background level

Molecule: TVRTSAD [ZD2]
- binding to EDB-FN (specificity) (EDB-FN [5]): binds with high specificity to EDB-FN
- effect of free ZD2 peptide on binding of MT218 ([4]; 5:1 molar ratio free ZD2 peptide to MT218, co-injection, n = 3): blocked the binding of the MT218 to the tumors; also recorded: inhibited the binding of MT218

Molecule: ZD2-((68)Ga-NOTA) [ZD2 peptide labeled with ^68Ga]
- molecular imaging of EDB-FN in PaCa (EDB-FN in PaCa): sensitive and specific molecular imaging of EDB-FN in PaCa

Molecule: ZD2-Cy5.5: peptide-fluorophore conjugate (TVRTSAD; also: Cy5.5 conjugate, end of attachment not given here)
- staining (EDB-FN [6]; BxPC3, Capan-1 and PANC-1 tumor tissues): high in all three tumor tissues
- ZD2-Cy5.5 binding after blocking (EDB-FN [6]; flash frozen tumor tissues pre-incubated with excess BC-1 antibody, 4°C overnight, then ZD2-Cy5.5): No fluorescent signal; also recorded: blocked
- staining (EDB-FN [6]; normal pancreatic and muscle tissues): undetectable; also recorded: No staining
- ZD2-Cy5.5 binding / EDB-FN expression (EDB-FN [7]; human PaCa tissue): high EDB-FN expression and high
- ZD2-Cy5.5 binding / EDB-FN expression (EDB-FN [7]; normal pancreatic tissue): little expression and low
- ZD2-Cy5.5 binding / EDB-FN expression (EDB-FN [7]; precancerous PanIN tissue): moderate expression

Molecule: TVRTSAD (also: conjugated to Gd(HP-DO3A) via N3, end of attachment not given here) [ZD2-N3-Gd(HP-DO3A)]
- tumor CNR fold increase, T1-weighted MRI, Capan-1 flank xenografts, MT218 0.1 mmol/kg, time course 5-35 min post-injection (maximum at 15 min) [8]: 4.8 fold
- tumor CNR fold increase, T1-weighted MRI, BxPC3-GFP-Luc intrapancreatic model, MT218 0.1 mmol/kg without the free ZD2 peptide [9]: 4.5 fold
- tumor contrast-to-noise ratio (CNR) fold increase, T1-weighted MRI, BxPC3-GFP-Luc intrapancreatic model, MT218 0.1 mmol/kg co-injected with a 5-fold excess of free ZD2 peptide [9]: 2.5 fold
- Kd (EDB fragment of FN): 3.2 µM

From PMC7661967, “Magnetic Resonance Molecular Imaging of Extradomain B Fibronectin Improves Imaging of Pancreatic Cancer Tumor Xenografts” (Frontiers in Oncology, 2020)
